# Experimental data as given in patent US10442773B2, “Amorphous letermovir and solid pharmaceutical formulations thereof for oral administration” (AICURIS ANTI-INFECTIVE CURES GMBH, priority 2013, dated 2019).
# Read-outs that look alike come from different tables or passages of the source.
# Assays:
# [1] = pH-solubility profile of amorphous Letermovir (BCS approach); format: physicochemical; conditions: standard buffer solutions, thermodynamic from solid
# Method: The inventors conducted a solubility study of amorphous Letermovir to investigate its biopharmaceutical status by standardized measures. The inventors orientated on the guidelines of the established Biopharmaceutics Classification System (BCS). The solubility class boundary according to the BCS is based on the highest dose strength of the IR product. By using the BCS approach the equilibrium solubility of amorphous Letermovir under physiological pH conditions is determined. The pH-solubility profile of amorphous Letermovir was determined at 37±1° C. in aqueous media with a pH in the range of 1-7.5. A sufficient number of pH conditions were evaluated to accurately define the pH-solubility profile of amorphous Letermovir. The number of pH conditions for the solubility determination was based on the ionization characteristics of Letermovir. A minimum of three replicate determinations of solubility in each pH condition was conducted. The highest dose of Letermovir is exemplarily 240 mg. When dissolved in 250 ml this equates to a concentration of 0.96 mg/ml.
# [2] = Absolute bioavailability, Cohort 1 of a clinical trial (oral vs intravenous); format: in vivo; conditions: human, plasma; single 30 mg oral dose (amorphous) vs 30 mg intravenous 30 min infusion; based on AUC0-last; 12 healthy female subjects
# Method: Assessment of absolute bioavailability after oral administration of 30 mg Letermovir in the amorphous state versus a 30 minute intravenous administration of 30 mg Letermovir in 150 ml saline solution 0.9%. Cohort 1 of the trial was conducted in an open-label, randomized (to treatment sequence), single center cross-over design (2 periods) in 12 healthy female subjects. Subjects received a single intravenous dose of 30 mg Letermovir via a 30-minute infusion in one period (“reference”) and a single oral dose of 30 mg Letermovir in the amorphous state in the other period (“test”). In both periods subjects were in-house from Day −1 to Day 4 (72 h after dosing on Day 1). The washout period between the periods (i.e. the dosing) was at least one week. The 30 mg dose in Cohort 1 was evaluated (see FIGS. 7a and 7b). Plasma concentrations of Letermovir were determined using a lower limit of quantification (LLOQ) of 1.00 ng/mL. Pharmacokinetic parameters AUC0-∞, Cmax, F, AUC0-last, tmax, λZ, t1/2z, CL/F, CL, Vd/F, Vd, MRT, AUC0-∞/D, Cmax/D, AUC0-last/D for Cohort 1 were calculated in WinNonlin using the actual sampling times. Descriptive statistics were calculated for the plasma concentrations and for the derived pharmacokinetic parameters. Statistics included sample size (n), mean, standard deviation (SD), percentage of coefficient of variation (% CV), geometric mean, median, minimum, and maximum. […]
# [3] = Long-term stability study of Letermovir precipitate tablets; format: physicochemical
# Method: Long-term stability studies were conducted with testing of color, dissolution, degradation products and assay at regular intervals to confirm the stability of amorphous Letermovir precipitate tablets.
# In addition, disintegration, water content and hardness/breaking load were conducted as informative tests.
# Samples of one batch of each dose strength of Letermovir precipitate tablets, packaged in 45 ml HDPE bottles with child-resistant closures were stored at 25° C./60% relative humidity and at 40° C./75% relative humidity. Stability data after 36 months storage were reported.
# Additional forced degradation studies were conducted. One batch per dose strength of Letermovir was stored at 60° C. for 3 months. In order to assess the hydrolytic stability, one batch of the 20 mg dose strength was stored with open storage at 40° C./75% relative humidity for 3 months.
# [4] = Ionization characteristics (isoelectric point, pKa); format: physicochemical
# Excerpt: The expressions “zwitterionic, zwitterionic properties, and zwitterion” in the context of the present invention for the API Letermovir means that a Letermovir molecule is a neutral molecule having a positive and a negative electrical charge at different locations within the same molecule. Accordingly, the API Letermovir has a charge, which changes with pH when measured in an electric field. […] The net charge is influenced by the pH value. Letermovir has a fixed value of isoelectric point (pI) being the pH value at which the number of cations is equal to that of anions. At this point (pI=5.55) the net electric charge of Letermovir is always zero. The solubility class boundary according to the BCS is based on the highest dose strength of the IR product. By using the BCS approach the equilibrium solubility of amorphous Letermovir under physiological pH conditions is determined. The pH-solubility profile of amorphous Letermovir was determined at 37±1° C. in aqueous media with a pH in the range of 1-7.5. A sufficient number of pH conditions were evaluated to accurately define the pH-solubility profile of amorphous Letermovir. The number of pH conditions for the solubility determination was based on the ionization characteristics of Letermovir. A minimum of three replicate determinations of solubility in each pH condition was conducted.
# HCMV isolates = assay: Antiviral activity against HCMV isolates; format: cell-based, human cytomegalovirus; conditions: Human betaherpesvirus 5; HCMV isolates of the respective individual; SD 0.0001 to 0.001
# Excerpt: The term “pharmaceutical activity” of Letermovir denotes the antiviral activity against HCMV isolates of the respective individual, being in the range of EC50±SD of 0.0005 to 0.005±0.0001 to 0.001.
structure (smiles),measurement,setting,value
"COc1cccc(N2CCN(C3=Nc4c(F)cccc4[C@H](CC(=O)O)N3c3cc(C(F)(F)F)ccc3OC)CC2)c1 [Letermovir, (S)-{8-Fluoro-2-[4-(3-methoxyphenyl)-1-piperazinyl]-3-[2-methoxy-5-(trifluoromethyl)phenyl]-3,4-dihydro-4-quinazolinyl}acetic acid]",solubility at 24 h,"[1]; 37 °C, aqueous buffer, pH range 1 to 7.5, summary of Table 3, read-out: solubility of Letermovir over the pH-range of 1 to 7.5",≥ 400 µg/mL
same,solubility at 24 h,"[1]; aqueous buffer, pH 2.9 (pKa1 − 1), 37°C±1°C, standard buffer, stirring 24 hours, read-out: Letermovir solubility",800 µg/mL
same,solubility at 24 h,"[1]; aqueous buffer, pH 3.9 (pKa1), 37°C±1°C, standard buffer, stirring 24 hours, read-out: Letermovir solubility",400 µg/mL
same,solubility at 24 h,"[1]; aqueous buffer, pH 4.9 (pKa1 + 1), 37°C±1°C, standard buffer, stirring 24 hours, read-out: Letermovir solubility",400 µg/mL
same,solubility at 24 h,"[1]; aqueous buffer, pH 7.5, 37°C±1°C, standard buffer, stirring 24 hours, read-out: Letermovir solubility",> 1000 µg/mL
same,solubility at 24 h,"[1]; simulated gastric fluid, pH 1, 37°C±1°C, standard buffer, stirring 24 hours, read-out: Letermovir solubility",> 900 µg/mL
same,bioavailability,[2],76%
same,stability under long-term and accelerated storage conditions,"[3]; 25°C/60% relative humidity and 40°C/75% relative humidity, 36 months",stable
same,shelf-life assigned,[3]; real time data at 25°C/60% RH,36 months
same,pKa1,[4],3.9 (pKa1)
same,isoelectric point (pI),[4]; pH at which net electric charge is zero,5.55
same,EC50,HCMV isolates,0.5 to 5 nM
